According to patent US20260034158A1, “METHODS OF TREATING CANCER OF THE CENTRAL NERVOUS SYSTEM COMPRISING 5-ETHYNYL-2'-DEOXYURIDINE” (The University of North Carolina at Chapel Hill, priority 2022, published 2026):

Experiments:
[1] = tested on: nucleotide excision repair in HeLa cells; assay: In vivo excision assay with anti-BrdU antibody immunoprecipitation; assay type: cell-based, human; details: for excised oligomers (nominal 26-mer) precipitated by anti-BrdU antibodies: 10 μM thymidine analog, 24 h, no UV
Procedure: (§1) UV Irradiation and Thymidine analog treatment: HeLa cells were grown to ˜80% confluence, culture medium was removed, cells were washed twice with PBS, and then were placed under a GE germicidal lamp emitting primarily 254-nm UV light (1 J/m^2/sec) connected with a digital timer for 20sec (20 J/m^2 in total). Cells were collected after 1 hour repair. Thymidine analogs were dissolved in sterile PBS (BrdU, EdU, CldU) or DMSO (IdU, F-ara-EdU, AmdU), and then added to cell culture medium at final concentration of 10 μM for indicated times.
(§2) In vivo excision assay: For in vivo excision assay with BrdU antibody, low molecular DNAs isolated by Hirt procedure as previously described (ref 17) were subject to immunoprecipitation with anti-BrdU antibody. For in vivo excision assay with TFIIH antibody, cells were lysed in buffer A (25 mM HEPES at pH7.9, 100 mM KCl, 12 mM MgCl2, 0.5 mM EDTA, 2 mM DTT, 12.5% glycerol, 0.5% NP-40), and excised oligonucleotides complexed with TFIIH protein were immunoprecipitated with TFIIH antibody. Purified oligonucleotides from BrdU IP or TFIIH IP were 3′ end-labeled by terminal deoxynucleotidyl transferase (TdT), α-^32P-ATP with a standard 50 mer oligonucleotide as spike internal control. After phenol-chloroform extraction and ethanol precipitation, labeled DNAs were fractionated with 12% denaturing sequencing gels.

[2] = tested on: nucleotide excision repair in HeLa cells; assay: In vivo excision assay with TFIIH antibody immunoprecipitation; assay type: cell-based, human; details: for substrate for excision repair: when incorporated into the DNA of replicating cells, summary statement
Procedure: as §1, §2

[3] = tested on: HeLa cells; assay: Slot blot assay of thymidine analog incorporation into genomic DNA; assay type: cell-based, human; details: 10 μM thymidine analog, 24 h, anti-BrdU antibody
Procedure: Slot blot assay: HeLa cells were plated in 100 mm plates and treated with 10 μM thymidine analogs for 24 h. Genomic DNA was purified from cell pellets using QIAamp DNA mini kit (Qiagen, 51306). DNA concentrations were determined using a Qubit 3.0 fluorometer. 250 ng of each DNA was diluted with TE buffer (10 mM Tris-HCl pH8, 1 mM EDTA) to a total volume of 250 μL, then boiled at 90° C. for 10 min and cooled in ice water immediately. 250 μL cold ammonium acetate (2 M) was added to neutralize DNA, and then DNA samples were loaded onto nitrocellulose membranes using a slot blot apparatus. Membranes were transferred to a vacuum oven and baked for 1.5 h at 80° C., then blocked with 5% dried milk and incubated with either anti-BrdU antibody (1:1000) or anti-ssDNA antibody (1:5000) as loading control overnight at 4° C. After incubating with a horseradish peroxidase (HRP) labeled secondary antibody (1:10000) for 1 h, chemiluminescent signal was captured using a Bio-Rad ChemiDoc XRS imaging device.

[4] = tested on: NHF1 wild-type cells; assay: In vivo excision assay (anti-BrdU IP) in wild-type NHF1 cells; assay type: cell-based, human; details: wild type NHF1, 10 μM EdU, 24 h
From the text: (§3) Cell lines: NHF1 cells, telomerase-immortalized normal human fibroblast monolayers were obtained as described previously (ref 17), XPA-/-XPC-/-CSB-/- triple knock out NHF1 cells were generated using CRISPR Cas9 system with gRNAs (XPA: […] (SEQ ID NO:1); CSB: […] (SEQ ID NO:2); XPC: […] (SEQ ID NO:3)). The HeLa cell line was from the American Type Culture Collection (ATCC). NHF1 and HeLa cells were maintained in Dulbecco's modified Eagle's medium (DMEM) supplemented with 10% fetal bovine serum at 37° C. in a 5% CO2 humidified chamber.
as §2

[5] = tested on: XPA-/-XPC-/-CSB-/- NHF1 cells; assay: In vivo excision assay (anti-BrdU IP) in excision repair defective NHF1 cells; assay type: cell-based, human; details: XPA-/-XPC-/-CSB-/- mutant NHF1, 10 μM EdU, 24 h
From the text: as §3, §2

[6] = tested on: Chinese hamster ovary (CHO) AA8 cell free extract excision nuclease; assay: In vitro excision assay with mammalian cell-free extract; assay type: biochemical; details: 140bp duplex substrates, CHO AA8 CFE, three biological replicates
Procedure: In vitro excision assay: Radiolabeled 140-bp full length undamaged, (6-4) PP, and EdU damaged substrates were prepared, and in vitro excision assay with cell-free extract from Chinese hamster ovary (CHO) AA8 cells were carried out as previously described (ref 39). Briefly, Chinese hamster ovary (CHO) AA8 cell free extract (CFE) was prepared by the method of Manley (ref 42). Linear double-stranded DNA substrates (140bp in length) were prepared with centrally located (6-4) photoproduct or EdU as described previously (ref 43). The sequence of the centrally located 12-mers was […]; SEQ ID NO:4. For the (6-4) substrate, the (6-4) lesion was between T5 and T6. Single EdU was at T6 and, double EdU lesions were at T5 and T6. Unmodified 12mer and EdU containing 12mers were purchased from Integrated DNA Technologies.
The excision reaction with AA8 CFE (75 μg) was conducted with 20 fmol of 140bp substrates, 18 mM HEPES-KOH (pH 7.9), 24 mM KCl, 2 mM MgCl2, 4 mM ATP at 30° C. for 60 minutes as described (ref 35). After the excision reaction, the mixture was incubated with 0.34% SDS and 20 µg/ml Proteinase K at 55-60° C. for 15 minutes, then DNA was extracted with phenol:chloroform:isoamyl alcohol and precipitated with ethanol, resuspended in formamide/dye mixture, and separated with a 10% sequencing gel. Quantification of the signal intensities was done by using ImageJ.

[7] = biological target: Taq DNA polymerase (Thermus aquaticus, UniProt P19821); assay: PCR of EdU-substituted genomic DNA with Taq DNA polymerase; assay type: biochemical; details: genomic DNA of cells treated with EdU for 24 hrs, CSA gene (946bp), 30 cycles
[8] = tested on: HeLa cells; assay: XR-seq of EdU excision products; assay type: cell-based, human; details: for TS/NTS ratio genome-wide: RNA Pol II transcribed genes
[9] = tested on: an osteosarcoma and a glioblastoma cell line; details: cited from earlier work
[10] = tested on: primary human glioblastoma cell; details: same dose as Temozolomide; cited from earlier work
[11] = compared with other thymidine analogs used to study replication; cited from earlier work
[12] = in vivo; cited from earlier work
[13] = HeLa cells, 10 μM thymidine analog, 24 h

Taq DNA polymerase, sequence (P19821 whole entry): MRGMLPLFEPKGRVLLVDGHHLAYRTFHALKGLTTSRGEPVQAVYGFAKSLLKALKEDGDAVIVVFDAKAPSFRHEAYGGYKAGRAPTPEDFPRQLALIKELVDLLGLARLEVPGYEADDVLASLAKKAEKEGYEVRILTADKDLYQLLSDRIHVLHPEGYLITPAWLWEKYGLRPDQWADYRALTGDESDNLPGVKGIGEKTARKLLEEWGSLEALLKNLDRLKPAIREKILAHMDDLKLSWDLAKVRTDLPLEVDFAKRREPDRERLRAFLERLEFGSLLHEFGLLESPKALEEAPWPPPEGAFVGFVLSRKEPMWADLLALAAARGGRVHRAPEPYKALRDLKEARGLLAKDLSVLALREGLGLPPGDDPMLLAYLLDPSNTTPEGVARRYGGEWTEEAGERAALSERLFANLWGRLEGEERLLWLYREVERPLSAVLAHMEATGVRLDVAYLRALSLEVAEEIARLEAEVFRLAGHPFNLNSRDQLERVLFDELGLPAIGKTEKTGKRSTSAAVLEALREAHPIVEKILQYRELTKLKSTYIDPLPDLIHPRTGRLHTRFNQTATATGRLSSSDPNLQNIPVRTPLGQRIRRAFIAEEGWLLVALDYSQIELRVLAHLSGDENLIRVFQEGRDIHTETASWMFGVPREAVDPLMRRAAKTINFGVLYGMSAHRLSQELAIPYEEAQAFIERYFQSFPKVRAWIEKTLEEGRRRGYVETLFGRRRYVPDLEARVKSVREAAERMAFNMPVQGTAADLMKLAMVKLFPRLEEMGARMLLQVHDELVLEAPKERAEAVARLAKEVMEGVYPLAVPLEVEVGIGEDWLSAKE

## O=c1[nH]c(=O)n([C@H]2C[C@H](O)[C@@H](CO)O2)cc1Cl [CldU, 5-Chloro-2′-deoxyuridine]
[1]
  excised oligomers (nominal 26-mer) precipitated by anti-BrdU antibodies: not
[2]
  substrate for excision repair: not to be substrates for excision repair
[3]
  incorporation into replicating HeLa cells: similarly incorporated

## C#Cc1cn([C@H]2C[C@H](O)[C@@H](CO)O2)c(=O)[nH]c1=O [EdU, 5-Ethynyl-2′-deoxyuridine]
[1]; 10 μM EdU for 3 to 48 hrs
  time of peak level of excised EdU-containing fragments: 24 h
[1]; 10 μM EdU, 24 hours, both light conditions
  length of excised oligonucleotides under yellow light and ordinary room light: 22-30 nts
[1]
  excised oligomers (nominal 26-mer) precipitated by anti-BrdU antibodies: precipitated oligomers in the form of nominal 26-mer
[1]; 4 hours EdU, then EdU-free medium, up to 12 hrs
  time that EdU removal continues after pulse labeling: at least 12 hrs
[2]; [13]
  length of excision products isolated with anti-TFIIH antibodies: 25-32 nucleotide
[2]
  substrate for excision repair: substrate for excision repair
[4]
  excision product: excision product seen
[5]
  excision product: no excision product
[3]
  incorporation into replicating HeLa cells: similarly incorporated
[6]
  in vitro excision (percentage of excision relative to total amount of substrate): efficient substrate for the mammalian excision nucleases
[7]
  PCR product from EdU-substituted genomic DNA template: produced full-size fragments
[8]; 15 ChromHMM chromatin states, 6 h to 48 h
  XR-seq reads over active promoter, weak promoter, strong enhancer and transcription transition region: relatively high
[8]; 6 h EdU treatment
  TS/NTS ratio genome-wide: ~2.5
[8]; 48 h EdU treatment
  TS/NTS ratio genome-wide: ~1.2
[8]; HACD3, DHFR, and MSH3 genes
  time at which TS/NTS repair ratio peaks: 6 h
[8]; anti-TFIIH IP, XR-seq
  peak of length distribution of excision products: 25-27 nucleotides
[8]; gene and intergenic regions
  repair of EdU at DNase hypersensitivity peaks: significantly enriched
[9]
  suppressing cell proliferation compared with BrdU: outperform BrdU
[10]
  apoptosis relative to Temozolomide: 3-5 fold
  strand breaks relative to Temozolomide: 3-5 fold
[11]
  toxicity: highly toxic
[12]
  crossing of the blood-brain-barrier: crosses the blood-brain-barrier

## O=c1[nH]c(=O)n([C@H]2C[C@H](O)[C@@H](CO)O2)cc1I [IdU, 5-Iodo-2′-deoxyuridine]
[1]
  excised oligomers (nominal 26-mer) precipitated by anti-BrdU antibodies: not
[2]
  substrate for excision repair: not to be substrates for excision repair
[3]
  incorporation into replicating HeLa cells: similarly incorporated

## [N-]=[N+]=NCc1cn([C@H]2C[C@H](O)[C@@H](CO)O2)c(=O)[nH]c1=O [AmdU, 5-(azidomethyl)-2′-deoxyuridine]
[2]; [13]
  excised by human nucleotide excision repair (TFIIH IP): only EdU is excised
[2]
  substrate for excision repair: not to be substrates for excision repair

## C#Cc1cn([C@@H]2O[C@H](CO)[C@@H](O)[C@@H]2F)c(=O)[nH]c1=O [F-ara-EdU, (2′S)-2-Deoxy-2-fluoro-5-ethynyluridine]
[2]; [13]
  excised by human nucleotide excision repair (TFIIH IP): only EdU is excised
[2]
  substrate for excision repair: not to be substrates for excision repair

## O=c1[nH]c(=O)n([C@H]2C[C@H](O)[C@@H](CO)O2)cc1Br [BrdU, 5-Bromo-2′-deoxyuridine]
[1]
  excised oligomers (nominal 26-mer) precipitated by anti-BrdU antibodies: not
[2]
  substrate for excision repair: not to be substrates for excision repair
[3]
  incorporation into replicating HeLa cells: similarly incorporated
